Assay results: patent US8952024B2, “Herbicidal pyrimidone derivatives” (E I du Pont de Nemours and Company, priority 2009, dated 2015)

Tests used:
Assay type in all cases: in vivo
[1] = tested on: rice (Oryza sativa); experiment: Test B flooded paddy test; conditions: for Plant response rating, Flood, Rice: 250 g ai/ha, flooded paddy test, visual rating on 0 to 100 scale (0 no effect, 100 complete control) after 13 to 15 days; for Plant response rating, Rice: Flood (flooded paddy test), 13 to 15 days; for Rice plant response rating: Flood, 31 g ai/ha, scale 0 to 100 (0 no effect, 100 complete control)
Procedure, shortened: (§1)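 Ratings are visual, 0–100 (100 = complete control), taken versus untreated controls 13 to 15 days after treatment in the greenhouse. Compound went straight into paddy water held 3 cm above soil, applied to 2-leaf-stage plants of four species.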

[2] = tested on: umbrella sedge (Cyperus difformis); experiment: Test B flooded paddy test; conditions: for Plant response rating, Flood, Sedge, Umbrella: 250 g ai/ha, flooded paddy test, visual rating on 0 to 100 scale (0 no effect, 100 complete control) after 13 to 15 days; for Plant response rating, Sedge, Umbrella: Flood (flooded paddy test), 13 to 15 days; for Sedge, Umbrella plant response rating: Flood, 31 g ai/ha, scale 0 to 100 (0 no effect, 100 complete control)
Procedure, shortened: as §1

[3] = tested on: ducksalad (Heteranthera limosa); experiment: Test B flooded paddy test; conditions: for Plant response rating, Flood, Ducksalad: 250 g ai/ha, flooded paddy test, visual rating on 0 to 100 scale (0 no effect, 100 complete control) after 13 to 15 days; for Plant response rating, Ducksalad: Flood (flooded paddy test), 13 to 15 days; for Ducksalad plant response rating: Flood, 31 g ai/ha, scale 0 to 100 (0 no effect, 100 complete control)
Procedure, shortened: as §1

[4] = tested on: barnyardgrass (Echinochloa crus-galli); experiment: Test B flooded paddy test; conditions: for Plant response rating, Flood, Barnyardgrass: 250 g ai/ha, flooded paddy test, visual rating on 0 to 100 scale (0 no effect, 100 complete control) after 13 to 15 days; for Plant response rating, Barnyardgrass: Flood (flooded paddy test), 13 to 15 days; for Barnyardgrass plant response rating: Flood, 31 g ai/ha, scale 0 to 100 (0 no effect, 100 complete control)
Procedure, shortened: as §1

[5] = tested on: morningglory (Ipomoea spp.); experiment: Test A pre-/postemergence plant response; conditions: for Morningglory plant response rating: visual injury, 0 to 100 scale (0 no effect, 100 complete control), approx. ten days
Procedure, shortened: (§2)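 Visually rated 0–100 injury (100 = complete control) versus untreated plants, ~10 days in greenhouse. Application pre- (soil spray, loam/sand) and postemergence (2–10 cm, 1–2 leaf stage), same timepoint.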

[6] = tested on: large crabgrass (Digitaria sanguinalis); experiment: Test A pre-/postemergence plant response; conditions: for Crabgrass, Large plant response rating: visual injury, 0 to 100 scale (0 no effect, 100 complete control), approx. ten days
Procedure, shortened: as §2

[7] = tested on: barnyardgrass (Echinochloa crus-galli); experiment: Test A pre-/postemergence plant response; conditions: for Barnyardgrass plant response rating: visual injury, 0 to 100 scale (0 no effect, 100 complete control), approx. ten days
Procedure, shortened: as §2

[8] = tested on: pigweed (Amaranthus retroflexus); experiment: Test A pre-/postemergence plant response; conditions: for Pigweed plant response rating: visual injury, 0 to 100 scale (0 no effect, 100 complete control), approx. ten days
Procedure, shortened: as §2

[9] = tested on: wheat (Triticum aestivum); experiment: Test A pre-/postemergence plant response; conditions: for Wheat plant response rating: visual injury, 0 to 100 scale (0 no effect, 100 complete control), approx. ten days
Procedure, shortened: as §2

[10] = tested on: giant foxtail (Setaria faberii); experiment: Test A pre-/postemergence plant response; conditions: for Foxtail, Giant plant response rating: visual injury, 0 to 100 scale (0 no effect, 100 complete control), approx. ten days
Procedure, shortened: as §2

[11] = tested on: corn (Zea mays); experiment: Test A pre-/postemergence plant response; conditions: for Corn plant response rating: visual injury, 0 to 100 scale (0 no effect, 100 complete control), approx. ten days
Procedure, shortened: as §2

[12] = tested on: velvetleaf (Abutilon theophrasti); experiment: Test A pre-/postemergence plant response; conditions: for Velvetleaf plant response rating: visual injury, 0 to 100 scale (0 no effect, 100 complete control), approx. ten days
Procedure, shortened: as §2

[13] = 62 g ai/ha, scale of 0 to 100 where 0 is no effect and 100 is complete control
[14] = 125 g ai/ha, scale 0 to 100, 0 is no effect, 100 is complete control
[15] = Preemergence, 125 g ai/ha, 0 to 100 scale, 0 = no effect, 100 = complete control
[16] = Preemergence, 500 g ai/ha, 0 to 100 scale, 0 = no effect, 100 = complete control
[17] = Postemergence, 125 g ai/ha, 0 to 100 scale where 0 is no effect and 100 is complete control

Compound: Cc1cccc(-c2ncc(C(=O)C3=C(O)CCCC3=O)c(=O)n2-c2ccc(F)cc2C)c1 [Compound 192]
- Plant response rating, Flood, Rice [1]: 20
- Plant response rating, Rice [1, 13]: 0
- Plant response rating, Rice [1, 14]: 0
- Rice plant response rating [1]: 0
- Plant response rating, Flood, Sedge, Umbrella [2]: 60
- Plant response rating, Sedge, Umbrella [2, 13]: 40
- Plant response rating, Sedge, Umbrella [2, 14]: 50
- Sedge, Umbrella plant response rating [2]: 0
- Plant response rating, Flood, Ducksalad [3]: 75
- Plant response rating, Ducksalad [3, 13]: 60
- Plant response rating, Ducksalad [3, 14]: 75
- Ducksalad plant response rating [3]: 60
- Plant response rating, Flood, Barnyardgrass [4]: 0
- Plant response rating, Barnyardgrass [4, 13]: 0
- Plant response rating, Barnyardgrass [4, 14]: 0
- Barnyardgrass plant response rating [4]: 0
- Morningglory plant response rating ([5]; Postemergence, 500 g ai/ha): 70
- Plant response rating, Morningglory [5, 15]: 0
- Plant response rating, Morningglory [5, 16]: 0
- Plant response rating, Crabgrass, Large [6, 17]: 30
- Crabgrass, Large plant response rating ([6]; Postemergence, 500 g ai/ha): 80
- Plant response rating, Crabgrass, Large [6, 15]: 10
- Plant response rating, Crabgrass, Large [6, 16]: 40
- Plant response rating, Barnyardgrass [7, 17]: 60
- Barnyardgrass plant response rating ([7]; Postemergence, 500 g ai/ha): 90
- Plant response rating, Barnyardgrass [7, 15]: 10
- Plant response rating, Barnyardgrass [7, 16]: 30
- Plant response rating, Pigweed [8, 17]: 60
- Pigweed plant response rating ([8]; Postemergence, 500 g ai/ha): 80
- Plant response rating, Pigweed [8, 15]: 0
- Plant response rating, Pigweed [8, 16]: 50
- Plant response rating, Wheat [9, 17]: 0
- Wheat plant response rating ([9]; Postemergence, 500 g ai/ha): 0
- Plant response rating, Wheat [9, 15]: 0
- Plant response rating, Wheat [9, 16]: 20
- Plant response rating, Foxtail, Giant [10, 17]: 50
- Foxtail, Giant plant response rating ([10]; Postemergence, 500 g ai/ha): 70
- Plant response rating, Foxtail, Giant [10, 15]: 0
- Plant response rating, Foxtail, Giant [10, 16]: 40
- Plant response rating, Corn [11, 17]: 0
- Corn plant response rating ([11]; Postemergence, 500 g ai/ha): 40
- Plant response rating, Corn [11, 15]: 40
- Plant response rating, Corn [11, 16]: 40
- Plant response rating, Velvetleaf [12, 17]: 70
- Velvetleaf plant response rating ([12]; Postemergence, 500 g ai/ha): 100
- Plant response rating, Velvetleaf [12, 15]: 0
- Plant response rating, Velvetleaf [12, 16]: 60

Compound: COc1cccc(-c2ncc(C(=O)C3=C(O)CCCC3=O)c(=O)n2C2CCCCC2)c1 [Compound 196]
- Plant response rating, Flood, Rice [1]: 65
- Plant response rating, Rice [1, 13]: 0
- Plant response rating, Rice [1, 14]: 40
- Rice plant response rating [1]: 0
- Plant response rating, Flood, Sedge, Umbrella [2]: 80
- Plant response rating, Sedge, Umbrella [2, 13]: 30
- Plant response rating, Sedge, Umbrella [2, 14]: 75
- Sedge, Umbrella plant response rating [2]: 20
- Plant response rating, Flood, Ducksalad [3]: 95
- Plant response rating, Ducksalad [3, 13]: 60
- Plant response rating, Ducksalad [3, 14]: 95
- Ducksalad plant response rating [3]: 40
- Plant response rating, Flood, Barnyardgrass [4]: 30
- Plant response rating, Barnyardgrass [4, 13]: 0
- Plant response rating, Barnyardgrass [4, 14]: 20
- Barnyardgrass plant response rating [4]: 0
- Plant response rating, Morningglory [5, 17]: 100
- Morningglory plant response rating ([5]; Postemergence, 500 g ai/ha): 100
- Plant response rating, Morningglory [5, 15]: 0
- Plant response rating, Morningglory [5, 16]: 40
- Plant response rating, Crabgrass, Large [6, 17]: 50
- Crabgrass, Large plant response rating ([6]; Postemergence, 500 g ai/ha): 90
- Plant response rating, Crabgrass, Large [6, 15]: 0
- Plant response rating, Crabgrass, Large [6, 16]: 70
- Plant response rating, Barnyardgrass [7, 17]: 80
- Barnyardgrass plant response rating ([7]; Postemergence, 500 g ai/ha): 90
- Plant response rating, Barnyardgrass [7, 15]: 0
- Plant response rating, Barnyardgrass [7, 16]: 50
- Plant response rating, Pigweed [8, 17]: 80
- Pigweed plant response rating ([8]; Postemergence, 500 g ai/ha): 100
- Plant response rating, Pigweed [8, 15]: 0
- Plant response rating, Pigweed [8, 16]: 30
- Plant response rating, Wheat [9, 17]: 0
- Wheat plant response rating ([9]; Postemergence, 500 g ai/ha): 30
- Plant response rating, Wheat [9, 15]: 0
- Plant response rating, Wheat [9, 16]: 20
- Plant response rating, Foxtail, Giant [10, 17]: 70
- Foxtail, Giant plant response rating ([10]; Postemergence, 500 g ai/ha): 100
- Plant response rating, Foxtail, Giant [10, 15]: 0
- Plant response rating, Foxtail, Giant [10, 16]: 80
- Plant response rating, Corn [11, 17]: 10
- Corn plant response rating ([11]; Postemergence, 500 g ai/ha): 40
- Plant response rating, Corn [11, 15]: 0
- Plant response rating, Corn [11, 16]: 20
- Plant response rating, Velvetleaf [12, 17]: 100
- Velvetleaf plant response rating ([12]; Postemergence, 500 g ai/ha): 100
- Plant response rating, Velvetleaf [12, 15]: 0
- Plant response rating, Velvetleaf [12, 16]: 50
